Values joined by “and” are separate entries in the source; they are usually repeats but may differ in a detail not shown here. Identical values can stand only once. Inconclusive results and toxic doses are left out. Rule for the calls: active = survival T/C of 150% or more; inactive = T/C below 125% in these data.
Tested on: P388 leukemia ip, CD2F1 mice, survival T/C
Assay: NCI In Vivo Anticancer Drug Screen. Data for tumor model P388 Leukemia (intraperitoneal) in CD2F1 (CDF1) mice
Conditions: endpoint: median survival time, higher = longer survival
Method in brief: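 Mice carrying the transplanted tumor received test compound or vehicle. Survival was recorded in each group, and the value is the treated-group measurement divided by that of the vehicle-treated control group.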

[1] = dose: 60.0 mg/kg/injection, schedule: Q01DX005 (ip), vehicle: Klucel (hydroxypropylcellulose) (HPC)
[2] = dose: 120.0 mg/kg/injection, schedule: Q01DX005 (ip), vehicle: Klucel (hydroxypropylcellulose) (HPC)
[3] = dose: 240.0 mg/kg/injection, schedule: Q01DX005 (ip), vehicle: Klucel (hydroxypropylcellulose) (HPC)
[4] = dose: 50.0 mg/kg/injection, schedule: Q01DX009 (ip), vehicle: saline

Measured: T/C

Nc1nc(SCC(=O)O)[nH]c(=O)c1NS(=O)(=O)c1ccc([N+](=O)[O-])cc1
inactive: [1] 96 % of control | [2] 98 % of control | [3] 102 % of control

COc1ccc(/C=C\C(C)=N\NC(=S)Nc2ccc(Br)cc2)cc1
inactive: dose: 50.0 mg/kg/injection, schedule: Q01DX005 (ip), vehicle: Klucel (hydroxypropylcellulose) (HPC) 97 % of control | dose: 100.0 mg/kg/injection, schedule: Q01DX005 (ip), vehicle: Klucel (hydroxypropylcellulose) (HPC) 96 % of control | dose: 200.0 mg/kg/injection, schedule: Q01DX005 (ip), vehicle: Klucel (hydroxypropylcellulose) (HPC) 89 % of control

CS(C)=O.CS(C)=O.CS(C)=O.CS(C)=O.[Cl][Ru][Cl]
inactive: [1] 105 % of control | dose: 100.0 mg/kg/injection, schedule: Q04DX003 (ip), vehicle: saline 97 % of control | [2] 101 % of control | dose: 200.0 mg/kg/injection, schedule: Q04DX003 (ip), vehicle: saline 99 % of control | [3] 107 % of control | dose: 400.0 mg/kg/injection, schedule: Q04DX003 (ip), vehicle: saline 92 % of control

CS(=O)(=O)c1cc([N+](=O)[O-])cc([N+](=O)[O-])c1Cl
inactive: dose: 2.5 mg/kg/injection, schedule: Q01DX009 (ip), vehicle: saline with Tween-80 109 % of control | dose: 5.0 mg/kg/injection, schedule: Q01DX009 (ip), vehicle: saline with Tween-80 90 % of control

O=C(/C=C/c1cccc(Cl)c1)c1ccc(Cl)cc1
inactive: dose: 30.0 mg/kg/injection, schedule: Q01DX005 (ip), vehicle: saline with Tween-80 102 % of control | dose: 60.0 mg/kg/injection, schedule: Q01DX005 (ip), vehicle: saline with Tween-80 100 % of control | dose: 120.0 mg/kg/injection, schedule: Q01DX005 (ip), vehicle: saline with Tween-80 100 % of control | dose: 240.0 mg/kg/injection, schedule: Q01DX005 (ip), vehicle: saline with Tween-80 110 % of control

Oc1ccccc1C1=NC(c2ccccc2)NC(c2ccccc2)C1 (stereo unspecified)
inactive: dose: 50.0 mg/kg/injection, schedule: Q01DX009 (ip), vehicle: saline with Tween-80 88 % of control | dose: 100.0 mg/kg/injection, schedule: Q01DX009 (ip), vehicle: saline with Tween-80 93 % of control

CCC(C)C1NC(=O)C(NC(=O)c2c3nc4c(C(=O)NC5C(=O)NC(C(C)CC)C(=O)N6CCCC6C(=O)N(C)CC(=O)N(C)C(C(C)C)C(=O)OC5C)ccc(C)c4oc-3c(C)c(=O)c2Cl)C(C)OC(=O)C(C(C)C)N(C)C(=O)CN(C)C(=O)C2CCCN2C1=O (stereo unspecified)
inactive: dose: 0.05 mg/kg/injection, schedule: Q01DX009 (ip), vehicle: water 92 % of control | dose: 0.1 mg/kg/injection, schedule: Q01DX009 (ip), vehicle: water 96 % of control | dose: 0.2 mg/kg/injection, schedule: Q01DX009 (ip), vehicle: water 99 % of control | dose: 0.4 mg/kg/injection, schedule: Q01DX009 (ip), vehicle: water 102 % of control and 111 % of control | dose: 0.8 mg/kg/injection, schedule: Q01DX009 (ip), vehicle: water 118 % of control
active: dose: 3.2 mg/kg/injection, schedule: Q01DX009 (ip), vehicle: water 155 % of control | dose: 6.4 mg/kg/injection, schedule: Q01DX009 (ip), vehicle: water 174 % of control

CC(C)(CS)C(=O)O
inactive: [4] 103 % of control

CCNC(=S)N/N=C/c1nccc(-c2ccccc2)c1C
inactive: dose: 25.0 mg/kg/injection, schedule: Q01DX009 (ip), vehicle: saline 117 % of control and 94 % of control | [4] 100 % of control and 103 % of control (2×) | dose: 100.0 mg/kg/injection, schedule: Q01DX009 (ip), vehicle: saline 99 % of control and 108 % of control | dose: 200.0 mg/kg/injection, schedule: Q01DX009 (ip), vehicle: saline 100 % of control

C=COC(=O)C(Cc1ccc([N+](=O)[O-])cc1)NC(=O)OCc1ccccc1 (stereo unspecified)
inactive: dose: 100.0 mg/kg/injection, schedule: Q04DX002 (ip), vehicle: Klucel (hydroxypropylcellulose) (HPC) 97 % of control | dose: 200.0 mg/kg/injection, schedule: Q04DX002 (ip), vehicle: Klucel (hydroxypropylcellulose) (HPC) 100 % of control | dose: 400.0 mg/kg/injection, schedule: Q04DX002 (ip), vehicle: Klucel (hydroxypropylcellulose) (HPC) 92 % of control

CN(C)CC#CCCCS(=O)(=O)c1ccccc1
inactive: dose: 60.0 mg/kg/injection, schedule: Q01DX005 (ip), vehicle: saline 97 % of control | dose: 120.0 mg/kg/injection, schedule: Q01DX005 (ip), vehicle: saline 99 % of control

CN(C)N=Nc1ccc(N(C)C)cc1
inactive: dose: 0.39 mg/kg/injection, schedule: Q01DX009 (ip), vehicle: Klucel (hydroxypropylcellulose) (HPC) 121 % of control | dose: 0.78 mg/kg/injection, schedule: Q01DX009 (ip), vehicle: Klucel (hydroxypropylcellulose) (HPC) 113 % of control and 114 % of control | dose: 1.56 mg/kg/injection, schedule: Q01DX009 (ip), vehicle: Klucel (hydroxypropylcellulose) (HPC) 113 % of control and 120 % of control | dose: 3.13 mg/kg/injection, schedule: Q01DX009 (ip), vehicle: Klucel (hydroxypropylcellulose) (HPC) 103 % of control and 118 % of control

O=C1OC(c2ccccc2)(c2ccccc2)CC1C=C(c1ccccc1)c1ccccc1 (stereo unspecified)
inactive: dose: 25.0 mg/kg/injection, schedule: Q01DX005 (ip), vehicle: saline with Tween-80 92 % of control | dose: 50.0 mg/kg/injection, schedule: Q01DX005 (ip), vehicle: saline with Tween-80 89 % of control and 94 % of control | dose: 100.0 mg/kg/injection, schedule: Q01DX005 (ip), vehicle: saline with Tween-80 89 % of control

CN1C=C([N+](=O)[O-])C(N2CCOCC2)C1N1CCOCC1 (stereo unspecified)
inactive: [1] 96 % of control | [2] 114 % of control
